We go through 31 molecules from patent publication US7598245B2 (Vertex Pharmaceuticals Incorporated, priority 2003, dated 2009).

Where only a bound is given, the exact number is not on record here.

Common to all, as to type: biochemical
The target in one assay is GSK-3β (AA 1-420) (Homo sapiens, UniProt P49841). The assay is described as follows: Inhibition of GSK-3, coupled enzyme system. To be noted: 20 μM ATP, 30° C. How it is done: Compounds are screened for their ability to inhibit GSK-3β (AA 1-420) activity using a standard coupled enzyme system [Fox et al. Protein Sci. 1998, 7, 2249]. Reactions are carried out in a solution containing 100 mM HEPES (pH 7.5), 10 mM MgCl2, 25 mM NaCl, 300 μM NADH, 1 mM DTT and 1.5% DMSO. Final substrate concentrations in the assay are 20 μM ATP (Sigma Chemicals, St Louis, Mo.) and 300 μM peptide (American Peptide, Sunnyvale, Calif.). Reactions are carried out at 30° C. and 20 nM GSK-3β. Final concentrations of the components of the coupled enzyme system are 2.5 mM phosphoenolpyruvate, 300 μM NADH, 30 μg/ml pyruvate kinase and 10 μg/ml lactate dehydrogenase.
Chain of GSK-3β (AA 1-420) (P49841 whole entry, the tested form may be a part): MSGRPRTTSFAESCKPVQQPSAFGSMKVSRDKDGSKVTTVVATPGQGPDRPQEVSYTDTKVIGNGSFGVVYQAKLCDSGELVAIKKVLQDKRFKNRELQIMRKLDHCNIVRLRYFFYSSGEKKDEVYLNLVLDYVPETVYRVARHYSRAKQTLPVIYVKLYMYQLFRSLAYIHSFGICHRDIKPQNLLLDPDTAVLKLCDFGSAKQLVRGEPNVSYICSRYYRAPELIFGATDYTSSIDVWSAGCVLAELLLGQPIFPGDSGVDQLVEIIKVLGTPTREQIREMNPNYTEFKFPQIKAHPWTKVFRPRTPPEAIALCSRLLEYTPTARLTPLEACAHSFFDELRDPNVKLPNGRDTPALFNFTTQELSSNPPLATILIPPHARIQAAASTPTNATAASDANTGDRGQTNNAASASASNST
An assay stock buffer solution is prepared containing all of the reagents listed above with the exception of ATP and the test compound of interest. The assay stock buffer solution (175 μl) is incubated in a 96 well plate with 5 μl of the test compound of interest at final concentrations spanning 0.002 μM to 30 μM at 30° C. for 10 min. Typically, a 12 point titration is conducted by preparing serial dilutions (from 10 mM compound stocks) with DMSO of the test compounds in daughter plates. The reaction is initiated by the addition of 20 μl of ATP (final concentration 20 μM). Rates of reaction are obtained using a Molecular Devices Spectramax plate reader (Sunnyvale, Calif.) over 10 min at 30° C. The Ki values are determined from the rate data as a function of inhibitor concentration.

Another assay has as its target T1, CDK-2/Cyclin A (Homo sapiens, UniProt P24941).
T1 construct: 25 nM CDK-2/Cyclin A
The assay is described as follows: Inhibition of CDK-2, coupled enzyme assay. The note with it: 100 μM ATP, 30° C. How it is done: Compounds are screened for their ability to inhibit CDK-2/Cyclin A using a standard coupled enzyme assay [Fox et al. Protein Sci. 1998, 7, 2249]. Reactions were carried out in 100 mM HEPES (pH 7.5), 10 mM MgCl2, 25 mM NaCl, 1 mM DTT and 1.5% DMSO. Final substrate concentrations in the assay are 100 μM ATP (Sigma chemicals) and 100 μM peptide (American Peptide, Sunnyvale, Calif.). Assays are carried out at 30° C. and 25 nM CDK-2/Cyclin A. Final concentrations of the components of the coupled enzyme system are 2.5 mM phosphoenolpyruvate, 350 μM NADH, 30 μg/ml pyruvate kinase and 10 μg/ml lactate dehydrogenase.
An assay stock buffer solution is prepared containing all of the reagents listed above, with the exception of CDK-2/Cyclin A, DTT and the test compound of interest. 56 μl of the test reaction is placed in a 384 well plate followed by addition of 1 μl of 2 mM DMSO stock containing the test compound (final compound concentration 30 μM). The plate is preincubated for ˜10 minutes at 30° C. and the reaction initiated by addition of 10 μl of enzyme (final concentration 25 nM). Rates of reaction are obtained using a BioRad Ultramark plate reader (Hercules, Calif.) over a 5 minute read time at 30° C. Ki values are determined according to standard methods.

For the next assay, the target named is KDR (Homo sapiens, UniProt P35968). The assay is described as follows: Inhibition of KDR, coupled enzyme assay. The note with it: 300 μM ATP, 37° C. The procedure:
Compounds were screened for their ability to inhibit KDR using a standard coupled enzyme assay (Fox et al., Protein Sci., (1998) 7, 2249). Assays were carried out in a mixture of 200 mM HEPES 7.5, 10 mM MgCl2, 25 mM NaCl, 1 mM DTT and 1.5% DMSO. Final substrate concentrations in the assay were 300 μM ATP (Sigma Chemicals) and 10 μM poly E4Y (Sigma). Assays were carried out at 37° C. and 30 nM KDR. Final concentrations of the components of the coupled enzyme system were 2.5 mM phosphoenolpyruvate, 200 μM NADH, 30 μg/ML pyruvate kinase and 10 μg/ml lactate dehydrogenase.
An assay stock buffer solution was prepared containing all of the reagents listed above, with the exception of ATP and the test compound of interest. 177 μl of the stock solution was placed in a 96 well plate followed by addition of 3 μl of 2 mM DMSO stock containing the test compound (final compound concentration 30 μM). The plate was preincubated for about 10 minutes at 37° C. and the reaction initiated by addition of 20 μl of ATP (final concentration 300 μM). Rates of reaction were obtained using a Molecular Devices plate reader (Sunnyvale, Calif.) over a 5 minute read time at 37° C.

Chain of KDR (P35968 20-1356): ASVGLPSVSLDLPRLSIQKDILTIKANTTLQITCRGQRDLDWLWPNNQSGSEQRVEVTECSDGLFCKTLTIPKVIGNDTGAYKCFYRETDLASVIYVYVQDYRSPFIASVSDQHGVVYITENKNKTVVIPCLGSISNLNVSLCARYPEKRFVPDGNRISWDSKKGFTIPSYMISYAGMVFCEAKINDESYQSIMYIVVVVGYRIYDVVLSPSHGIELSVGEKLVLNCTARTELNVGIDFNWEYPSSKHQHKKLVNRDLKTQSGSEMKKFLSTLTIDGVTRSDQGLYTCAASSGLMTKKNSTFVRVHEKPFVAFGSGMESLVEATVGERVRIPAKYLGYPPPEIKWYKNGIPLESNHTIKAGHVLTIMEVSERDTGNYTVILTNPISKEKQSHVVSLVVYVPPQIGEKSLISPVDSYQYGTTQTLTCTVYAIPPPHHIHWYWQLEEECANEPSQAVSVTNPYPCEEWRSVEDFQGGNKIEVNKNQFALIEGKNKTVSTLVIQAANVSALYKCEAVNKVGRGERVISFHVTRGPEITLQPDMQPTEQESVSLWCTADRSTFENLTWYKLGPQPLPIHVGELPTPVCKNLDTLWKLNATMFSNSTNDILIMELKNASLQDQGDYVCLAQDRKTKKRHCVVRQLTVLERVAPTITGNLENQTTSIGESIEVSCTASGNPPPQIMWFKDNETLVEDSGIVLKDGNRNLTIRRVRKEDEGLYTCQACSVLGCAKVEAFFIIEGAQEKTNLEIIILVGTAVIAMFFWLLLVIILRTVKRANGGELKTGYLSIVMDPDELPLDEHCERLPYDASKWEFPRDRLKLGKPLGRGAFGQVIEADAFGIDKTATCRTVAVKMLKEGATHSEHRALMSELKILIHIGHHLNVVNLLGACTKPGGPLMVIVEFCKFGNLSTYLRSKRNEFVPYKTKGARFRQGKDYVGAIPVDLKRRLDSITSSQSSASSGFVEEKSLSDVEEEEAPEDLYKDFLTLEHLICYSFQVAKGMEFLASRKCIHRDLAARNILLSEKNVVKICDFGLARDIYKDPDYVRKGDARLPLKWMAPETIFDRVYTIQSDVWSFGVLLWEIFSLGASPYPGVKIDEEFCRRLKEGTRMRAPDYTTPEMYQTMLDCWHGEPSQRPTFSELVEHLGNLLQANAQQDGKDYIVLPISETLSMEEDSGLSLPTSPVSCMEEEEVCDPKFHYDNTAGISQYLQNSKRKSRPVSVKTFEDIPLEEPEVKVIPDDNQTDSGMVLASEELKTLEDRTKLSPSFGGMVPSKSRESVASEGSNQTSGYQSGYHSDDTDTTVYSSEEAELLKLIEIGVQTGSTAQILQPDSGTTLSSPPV

A word on the Ki: it is the equilibrium dissociation constant of an inhibitor or competing ligand from its target. Low readings indicate higher affinity, high ones lower affinity. Turning to `O=C(Cc1ccccc1)Nc1cc(-n2cnc(Nc3ccccc3)n2)ccn1` [Compound I-96], the Ki on GSK-3β (AA 1-420) was below 500 nM; at CDK-2/Cyclin A, below 500 nM; at KDR, 100 to 1000 nM.
Consider `OC[C@H]1CCCN(c2cc(-n3cnc(Nc4ccccc4)n3)ccn2)C1` [Compound I-65], for which the Ki at GSK-3β (AA 1-420) is 500 to 1000 nM; on CDK-2/Cyclin A it was below 500 nM; at KDR, 100 to 1000 nM.
For the molecule `O=C(CCc1ccccc1)Nc1cc(-n2cnc(Nc3ccccc3)n2)ccn1` [Compound I-95], the figures for the Ki on GSK-3β (AA 1-420), at CDK-2/Cyclin A and at KDR were below 500 nM, 500 to 1000 nM and 100 to 1000 nM, respectively.
For `CC1CCCN1c1cc(-n2cnc(Nc3ccccc3)n2)ccn1` (stereo not drawn) [Compound I-56] the same measures were below 500 nM, below 500 nM and below 100 nM.
For `CN(Cc1cccnc1)c1cc(-n2cnc(Nc3ccccc3)n2)ccn1` [Compound I-57] the same measures were below 500 nM, below 500 nM and below 100 nM.
Take `O=C(CC1CCCC1)Nc1cc(-n2cnc(Nc3ccccc3)n2)ccn1` [Compound I-94, 2-Cyclopentyl-N-[4-(3-phenylamino-[1,2,4]triazol-1-yl)-pyridin-2-yl]-acetamide]: the inhibition constant Ki was below 500 nM on GSK-3β (AA 1-420), above 1000 nM on CDK-2/Cyclin A and 100 to 1000 nM at KDR.
On the same counts, the results for `CC(=O)N1[C@H](C)CN(c2cc(-n3cnc(Nc4ccc(NC(=O)OC(C)C)cc4)n3)ccn2)C[C@@H]1C` [Compound I-89] are above 1000 nM, 500 to 1000 nM and 100 to 1000 nM.
On the same counts, the results for `CC(=O)N1[C@H](C)CN(c2cc(-n3cnc(Nc4ccc(NC(=O)N(C)C)cc4)n3)ccn2)C[C@@H]1C` [Compound I-77, 3-(4-{1-[2-(4-Acetyl-3,5-dimethyl-piperazin-1-yl)-pyridin-4-yl]-1H-[1,2,4]triazol-3-ylamino}-phenyl)-1,1-dimethyl-urea] are above 1000 nM, above 1000 nM and 100 to 1000 nM.
For `CC(=O)N1[C@H](C)CN(c2cc(-n3cnc(Nc4ccc(NC(=O)c5ccco5)cc4)n3)ccn2)C[C@@H]1C` [Compound I-81, Furan-2-carboxylic acid (4-{1-[2-(4-acetyl-3,5-dimethyl-piperazin-1-yl)-pyridin-4-yl]-1H-[1,2,4]triazol-3-ylamino}-phenyl)-amide] the same measures were above 1000 nM, 500 to 1000 nM and below 100 nM.
Consider `CC(=O)N1[C@H](C)CN(c2cc(-n3cnc(Nc4ccc(NC(=O)OCC(C)(C)C)cc4)n3)ccn2)C[C@@H]1C` [Compound I-91], for which the Ki at GSK-3β (AA 1-420) is above 1000 nM; on CDK-2/Cyclin A, 500 to 1000 nM; at KDR, 100 to 1000 nM.
For `CCCN(CCO)c1cc(-n2cnc(Nc3ccccc3)n2)ccn1` [Compound I-58] the same measures were below 500 nM, below 500 nM and below 100 nM.
For `CCOC(=O)c1ccc(Nc2ncn(-c3ccnc(N4CCCN(C(C)=O)CC4)c3)n2)cc1` [Compound I-76] the same measures were above 1000 nM, above 1000 nM and 100 to 1000 nM.
Regarding `CC(=O)N1[C@H](C)CN(c2cc(-n3cnc(Nc4ccc(N5CCN(S(=O)(=O)c6ccc(C)cc6)CC5)cc4)n3)ccn2)C[C@@H]1C` [Compound I-92], the figures for the Ki at GSK-3β (AA 1-420), at CDK-2/Cyclin A and on KDR were above 1000 nM, 500 to 1000 nM and below 100 nM, respectively.
As for `COCC(=O)N1CCCN(c2cc(-n3cnc(Nc4ccccc4)n3)ccn2)CC1` [Compound I-71], the Ki was above 1000 nM on GSK-3β (AA 1-420), above 1000 nM on CDK-2/Cyclin A and 100 to 1000 nM at KDR.
As for `c1ccc(-n2cnc(Nc3ccnc(N4CCOCC4)c3)n2)cc1` [Compound I-105], the Ki on GSK-3β (AA 1-420) is above 1000 nM; at CDK-2/Cyclin A, 500 to 1000 nM; at KDR it was 100 to 1000 nM.
On the same counts, the results for `O=C(Nc1cc(-n2cnc(Nc3ccccc3)n2)ccn1)C1CCCCC1` [Compound I-93] are below 500 nM, 500 to 1000 nM and 100 to 1000 nM.
On the same counts, the results for `CC(=O)N1[C@H](C)CN(c2cc(-n3cnc(Nc4ccc(NC(=O)OCC(C)C)cc4)n3)ccn2)C[C@@H]1C` [Compound I-90] are above 1000 nM, 500 to 1000 nM and 100 to 1000 nM.
For `CN(Cc1ccccc1)c1cc(-n2cnc(Nc3ccccc3)n2)ccn1` [Compound I-55], the values for the Ki at GSK-3β (AA 1-420), at CDK-2/Cyclin A and on KDR were above 1000 nM, below 500 nM and 100 to 1000 nM, respectively.
For `CCCOC(=O)Nc1ccc(Nc2ncn(-c3ccnc(N4C[C@@H](C)N(C(C)=O)[C@@H](C)C4)c3)n2)cc1` [Compound I-88] the same measures were above 1000 nM, below 500 nM and 100 to 1000 nM.
Take `CN(C)CCCN(C)c1cc(-n2cnc(Nc3ccccc3)n2)ccn1` [Compound I-53]: the figures for the Ki at GSK-3β (AA 1-420), on CDK-2/Cyclin A and at KDR were above 1000 nM, above 1000 nM and 100 to 1000 nM, respectively.
In the case of `c1ccc(-n2cnc(Nc3ccc(N4CCOCC4)cc3)n2)cc1` [Compound I-106], the Ki at GSK-3β (AA 1-420) was above 1000 nM; on CDK-2/Cyclin A it was above 1000 nM; at KDR it was 100 to 1000 nM.
Regarding `CC(C)(C)CC(=O)Nc1cc(-n2cnc(Nc3ccccc3)n2)ccn1` [Compound I-102], the inhibitory constant (Ki) was above 1000 nM at GSK-3β (AA 1-420), above 1000 nM at CDK-2/Cyclin A and 100 to 1000 nM at KDR.
Take `CCC(=O)N1CCCN(c2cc(-n3cnc(Nc4ccccc4)n3)ccn2)CC1` [Compound I-67]: the values for the Ki on GSK-3β (AA 1-420), at CDK-2/Cyclin A and at KDR were above 1000 nM, above 1000 nM and 100 to 1000 nM, respectively.
With `c1ccc(-n2cnc(Nc3ccnc(NCCN4CCOCC4)c3)n2)cc1` [Compound I-107], the inhibitory constant (Ki) on GSK-3β (AA 1-420), at CDK-2/Cyclin A and at KDR was above 1000 nM throughout.
With `CC(=O)N1[C@H](C)CN(c2cc(-n3cnc(Nc4ccc(NC(=O)NC(C)(C)C)cc4)n3)ccn2)C[C@@H]1C` [Compound I-101], the Ki on GSK-3β (AA 1-420) is above 1000 nM; at CDK-2/Cyclin A, 500 to 1000 nM; on KDR, 100 to 1000 nM.
For `N#CCC(=O)N1CCCN(c2cc(-n3cnc(Nc4ccccc4)n3)ccn2)CC1` [Compound I-72] the same measures were above 1000 nM, below 500 nM and 100 to 1000 nM.
Consider `CN(CCO)c1cc(-n2cnc(Nc3ccccc3)n2)ccn1` [Compound I-51], for which the results for the Ki on GSK-3β (AA 1-420), on CDK-2/Cyclin A and on KDR were below 500 nM, below 500 nM and below 100 nM, respectively.
With `CCN(CC)CCNc1cc(-n2cnc(Nc3ccccc3)n2)ccn1` [Compound I-60], the Ki at GSK-3β (AA 1-420), on CDK-2/Cyclin A and at KDR was above 1000 nM in each case.
As for `CC(=O)N1[C@H](C)CN(c2cc(-n3cnc(Nc4ccccc4)n3)ccn2)C[C@@H]1C` [Compound I-74], the Ki at GSK-3β (AA 1-420) was above 1000 nM; at CDK-2/Cyclin A it was below 500 nM; at KDR it was below 100 nM.
On the same counts, the results for `c1ccc(Nc2ncn(-c3ccnc(NC4CCCCC4)c3)n2)cc1` [Compound I-50] are 500 to 1000 nM, below 500 nM and 100 to 1000 nM.
On the same counts, the results for `c1ccc(Nc2ncn(-c3ccnc(N4CCCCCCC4)c3)n2)cc1` [Compound I-52] are 500 to 1000 nM, below 500 nM and below 100 nM.
